Where two headings read alike, the source gives them in different places. Marks after values point to notes of the source that are not given here.
Legend:
[1] = system: human non-small-cell lung cancer cell line A549; test: MTT cell growth inhibition, A549; format: cell-based; conditions: A549, MTT assay, 72 h, read-out: IC50, growth of tumor cell line
Text: (§3) Experimental method: Cell lines (human non-small-cell lung cancer cell line A549, human colon cancer cell line LOVO, human nasopharyngeal carcinoma cell line CNE-2, human liver cancer cell line HepG2, human cervical carcinoma cell line Hela, human breast cancer cell lines MCF-7 and MDA-MB-231, human gastric carcinoma cell line NCI-N87, human prostatic cancer cell lines PC-3 and DU145, human leukemia cell line K562, human melanoma cell line A375, human neuroblastoma cell line SH-SY5H, human promyelocytic leukemia cell line HL-60, 5-FU-resistant human hepatocellular carcinoma cell line BEL-7402/5-Fu, doxorubicin-resistant hepatocellular carcinoma cell line HepG2/ADM, doxorubicin-resistant human breast cancer cell lines MCF-7/ADR) at logarithmic phase were resuspended in RPMI 1640 medium (containing 10% fetal bovine serum, 100 U/mL penicillin-streptomycin). Then, 100 μL of cells (cell concentration was 5×10^5/mL) were seeded into 96 wells plate. After 24 h incubation at 37° C. with 5% CO2, tested compounds were added (the control group without compound) for an additional 72 h incubation. After that, 30 μL of MTT [3-(4,5-Dimethylthiazol-2-yl)-2,5-diphenyltetrazolium bromide] solution (5 mg/mL) was added into each well and incubated for another 4 h at 37° C. and then the formazan crystals were solubilized with 100 μL DMSO. Finally, absorbance of each well was determined at 570 nm by a microplate reader (Thermo).
(§4) The concentration required to inhibit cell growth by 50% (IC50) was calculated from survival curves.

[2] = system: human colon cancer cell line LOVO; test: MTT cell growth inhibition, LOVO; format: cell-based; conditions: LOVO (FAPα positive), MTT assay, 72 h, read-out: IC50, growth of tumor cell line
Text: as §3, §4

[3] = system: human nasopharyngeal carcinoma cell line CNE-2; test: MTT cell growth inhibition, CNE-2; format: cell-based; conditions: CNE-2, MTT assay, 72 h, read-out: IC50, growth of tumor cell line
Text: as §3, §4

[4] = system: human liver cancer cell line HepG2; test: MTT cell growth inhibition, HepG2; format: cell-based; conditions: HepG2, MTT assay, 72 h, read-out: IC50, growth of tumor cell line
Text: as §3, §4

[5] = system: human cervical carcinoma cell line Hela; test: MTT cell growth inhibition, Hela; format: cell-based; conditions: MTT assay, 72 h, read-out: IC50, growth of tumor cell line
Text: as §3, §4

[6] = system: human breast cancer cell line MCF-7; test: MTT cell growth inhibition, MCF-7; format: cell-based; conditions: MCF-7, MTT assay, 72 h, read-out: IC50, growth of tumor cell line
Text: as §3, §4

[7] = system: human breast cancer cell line MDA-MB-231; test: MTT cell growth inhibition, MDA-MB-231; format: cell-based; conditions: MDA-MB-231, MTT assay, 72 h, read-out: IC50, growth of tumor cell line
[8] = system: human gastric carcinoma cell line NCI-N87; test: MTT cell growth inhibition, NCI-N87; format: cell-based; conditions: NCI-N87, MTT assay, 72 h, read-out: IC50, growth of tumor cell line
Text: as §3, §4

[9] = system: human prostatic cancer cell line PC-3; test: MTT cell growth inhibition, PC-3; format: cell-based; conditions: PC-3, MTT assay, 72 h, read-out: IC50, growth of tumor cell line
Text: as §3, §4

[10] = system: human prostatic cancer cell line DU145; test: MTT cell growth inhibition, DU-145; format: cell-based; conditions: DU-145, MTT assay, 72 h, read-out: IC50, growth of tumor cell line
Text: as §3, §4

[11] = system: human leukemia cell line K562; test: MTT cell growth inhibition, K562; format: cell-based; conditions: K562, MTT assay, 72 h, read-out: IC50, growth of tumor cell line
[12] = system: human melanoma cell line A375; test: MTT cell growth inhibition, A375; format: cell-based; conditions: A375, MTT assay, 72 h, read-out: IC50, growth of tumor cell line
[13] = system: human neuroblastoma cell line SH-SY5H; test: MTT cell growth inhibition, SH-SY5H; format: cell-based; conditions: MTT assay, 72 h, read-out: IC50, growth of tumor cell line
[14] = system: human promyelocytic leukemia cell line HL-60; test: MTT cell growth inhibition, HL-60; format: cell-based; conditions: HL-60, MTT assay, 72 h, read-out: IC50, growth of tumor cell line
Text: as §3, §4

[15] = system: 5-FU-resistant human hepatocellular carcinoma cell line BEL-7402/5-Fu; test: MTT cell growth inhibition, BEL-7402/5-Fu; format: cell-based; conditions: MTT assay, 72 h, read-out: IC50, growth of tumor cell line
Text: as §3, §4

[16] = system: doxorubicin-resistant hepatocellular carcinoma cell line HepG2/ADM; test: MTT cell growth inhibition, HepG2/ADM; format: cell-based, human; conditions: MTT assay, 72 h, read-out: IC50, growth of tumor cell line
Text: as §3, §4

[17] = system: Kunming mice; test: Acute toxicity test; format: in vivo; conditions: injected intraperitoneally
Protocol: Experimental method: Kunming mice were purchased from Guangdong Medical Experimental Animal Center, weighing 18-22 g, then randomly divided into several groups with 10 mice in each group. Different concentrations of VLB and vinca alkaloid dipeptide derivatives were injected intraperitoneally. Finally, the median lethal dose (LD50) was calculated according to the surviving animals.
LD50 was measured using the following formula:
LD50 (mg/kg)=The median lethal dose/body weight

[18] = system: MDA-MB-231 xenografts; test: MDA-MB-231 xenografts in nude mice; format: in vivo, BALB/nu/nu mice; conditions: MDA-MB-231 xenograft nude mice; for Anti-tumor rate (%) / Body weight (g) Post-dose / Tumor weight: 1 mg/kg i.p. every two days, 8 administrations; for Body weight (g) Pre-dose: before dosing
Protocol: (§1) Experimental method: The MDA-MB-231 cells at logarithmic phase were digested and washed twice with PBS. Then, 100 μL cells (1×10^7) were inoculated subcutaneously on the backs of female BALB/nu/nu mice. After tumors grew to 70˜100 mm^3, the mice were divided randomly into saline group (control group), vinca alkaloids groups (VLB, CCRB, CCFN, CCXJ) and vinca alkaloid derivatives groups (JJ-CCJ, BX-CCJ, JJ-CCRB, BX-CCRB, JJ-CCFN, BX-CCFN, JJ-CCXJ and BX-CCXJ), with six mice per group. 1 mg/kg drugs were injected intraperitoneally every two days, meanwhile body weight and tumor sizes were measured. Experiment was ended after 8 times of drug administration, then tumor and organs were stripped. Tumor volumes were measured using the following formula: V=½(ab^2), whereas a refers to the longest diameter and b is the shortest diameter.

[19] = system: HepG2 xenografts; test: HepG2 xenografts in nude mice; format: in vivo; conditions: HepG2 xenograft nude mice; for Anti-tumor rate (%) / Body weight (g) Post-dose / Tumor weight: 1 mg/kg; for Body weight (g) Pre-dose: before dosing
Protocol: as §1
(§2) Tumor xenograft models of HepG2, LOVO, K562 and HL-60 cell lines were performed as the method described above.

[20] = system: LOVO xenografts; test: LOVO xenografts in nude mice; format: in vivo; conditions: LOVO xenograft nude mice; for Anti-tumor rate (%) / Body weight (g) Post-dose / Tumor weight: 1 mg/kg; for Body weight (g) Pre-dose: before dosing
Protocol: as §1, §2

[21] = system: K562 xenografts; test: K562 xenografts in nude mice; format: in vivo; conditions: K562 xenograft nude mice; for Anti-tumor rate (%) / Body weight (g) Post-dose / Tumor weight: 1 mg/kg; for Body weight (g) Pre-dose: before dosing
Protocol: as §1, §2

[22] = system: HL-60 xenografts; test: HL-60 xenografts in nude mice; format: in vivo; conditions: HL-60 xenograft nude mice; for Anti-tumor rate (%) / Body weight (g) Post-dose / Tumor weight: 1 mg/kg; for Body weight (g) Pre-dose: before dosing
Protocol: as §1, §2

[23] = system: human normal liver cells LO2; test: MTT cytotoxicity on normal cells, LO2; conditions: read-out: IC50, cytotoxicity on normal cell line; LO2, MTT assay
Protocol: (§5) Then, 100 μL of cells (cell concentration was 5×10^5/mL) were seeded into 96 wells plate. After 24 h incubation at 37° C. with 5% CO2, tested compounds were added (the control group without compound) for an additional 72 h incubation. After that, 30 μL of MTT [3-(4,5-Dimethylthiazol-2-yl)-2,5-diphenyltetrazolium bromide] solution (5 mg/mL) was added into each well and incubated for another 4 h at 37° C. and then the formazan crystals were solubilized with 100 μL DMSO. Finally, absorbance of each well was determined at 570 nm by a microplate reader (Thermo).
(§6) The standard curve was drew with compound concentrations as the abscissa and cell growth inhibition rates as the ordinate. The concentration required to inhibit cell growth by 50% (IC50) was calculated from survival curves.
(§7) Experimental method: In vitro cytotoxicities of vinca alkaloids, hydrazinolyzed vinca alkaloids and vinca alkaloid dipeptide derivatives on human normal liver cells LO2 and human umbilical vein endothelial cells HUVEC were detected according to the method of Example 2.

[24] = system: human umbilical vein endothelial cells HUVEC; test: MTT cytotoxicity on normal cells, HUVEC; conditions: read-out: IC50, cytotoxicity on normal cell line; HUVEC, MTT assay
[25] = MTT cytotoxicity on normal cells, LO2; conditions: human, LO2 cells (human normal liver cells)
Protocol: as §5, §6, §7

[26] = MTT cytotoxicity on normal cells, HUVEC; conditions: human, HUVEC (human umbilical vein endothelial cells)
[27] = system: doxorubicin-resistant human breast cancer cell lines MCF-7/ADR; test: MTT cell growth inhibition, MCF-7/ADR; format: cell-based; conditions: Homo sapiens, NCI/ADR-RES, MTT assay, 72 h, read-out: IC50, growth of tumor cell line
Text: as §3, §4

[28] = Homo sapiens, Neuroblastoma cell

## CCC1(O)CC2CN(CCc3c([nH]c4ccccc34)C(C(=O)OC)(c3cc4c(cc3OC)N(C)C3C(O)(C(=O)NNC(=O)C5CCCN5C(=O)CNC(=O)OCc5ccccc5)C(O)C5(CC)C=CCN6CCC43C65)C2)C1 (stereo not drawn) [BX-CCJ, Z-GP-NHNH-Vinblastine]
[1]
  IC50: 62.1 ± 3.87 nM
[2]
  IC50: 44.8 ± 8.15 nM
[3]
  IC50: 52.7 ± 3.01 nM
[4]
  IC50: 46.8 ± 1.17 nM
[5]
  IC50: 56.8 ± 3.08 nM
[6]
  IC50: 108 ± 4.23 nM
[7]
  IC50: 64.2 ± 4.57 nM
[8]
  IC50: 103 ± 8.87 nM
[9]
  IC50: 71.1 ± 1.97 nM
[10]
  IC50: 57.3 ± 2.07 nM
[11]
  IC50: 11.7 ± 3.04 nM
[12]
  IC50: 49.5 ± 4.53 nM
[13]
  IC50: 59.8 ± 6.42 nM
[14]
  IC50: 85.5 ± 9.57 nM
[15]
  IC50: 179 ± 8.87 nM
[16]
  IC50: 146 ± 5.47 nM
[17]
  LD50 (median lethal dose): 10 mg/kg
[18]
  Anti-tumor rate (%): 92.34** %
  Body weight (g) Post-dose: 21.2 ± 2.1 g
  Tumor weight: 0.20 ± 0.12 g
  Body weight (g) Pre-dose: 19.8 ± 1.0 g
[19]
  Anti-tumor rate (%): 86.67** %
  Body weight (g) Post-dose: 22.1 ± 1.3 g
  Tumor weight: 0.34 ± 0.21 g
  Body weight (g) Pre-dose: 22.0 ± 1.7 g
[20]
  Anti-tumor rate (%): 85.02** %
  Body weight (g) Post-dose: 24.4 ± 1.6 g
  Tumor weight: 0.43 ± 0.38 g
  Body weight (g) Pre-dose: 23.8 ± 1.9 g
[21]
  Anti-tumor rate (%): 76.79** %
  Body weight (g) Post-dose: 23.1 ± 1.4 g
  Tumor weight: 0.39 ± 0.27 g
  Body weight (g) Pre-dose: 22.3 ± 1.0 g
[22]
  Anti-tumor rate (%): 81.29** %
  Body weight (g) Post-dose: 20.1 ± 1.0 g
  Tumor weight: 0.41 ± 0.19 g
  Body weight (g) Pre-dose: 18.8 ± 1.1 g
[23]
  IC50: 96.3 ± 1.11 nM
[24]
  IC50: 129 ± 1.34 nM

## CC[C@]1(O)C[C@@H]2CN(CCc3c([nH]c4ccccc34)[C@@](C(=O)OC)(c3cc4c(cc3OC)N(C)[C@H]3[C@@](O)(C(=O)NN)[C@H](O)[C@]5(CC)C=CCN6CC[C@]43[C@@H]65)C2)C1 [JJ-CCJ, hydrazinolyzed vinblastine]
[1]; Homo sapiens
  IC50: 6.43 ± 2.42 nM
[2]; Homo sapiens
  IC50: 32.9 ± 6.39 nM
[3]; Homo sapiens
  IC50: 7.14 ± 0.16 nM
[4]; Homo sapiens
  IC50: 12.4 ± 0.72 nM
[5]; Homo sapiens
  IC50: 14.5 ± 1.81 nM
[6]; Homo sapiens, MCF7
  IC50: 23.9 ± 3.07 nM
[7]; Homo sapiens
  IC50: 5.99 ± 3.29 nM
[8]; Homo sapiens
  IC50: 17.4 ± 2.2 nM
[9]; Homo sapiens
  IC50: 6.27 ± 0.61 nM
[10]; Homo sapiens
  IC50: 5.33 ± 0.6 nM
[11]; Homo sapiens
  IC50: 3.67 ± 0.79 nM
[12]; Homo sapiens, A-375
  IC50: 4.56 ± 0.57 nM
[13]; [28]
  IC50: 6.24 ± 1.31 nM
[14]; Homo sapiens
  IC50: 8.65 ± 1.28 nM
[15]; Homo sapiens, Bel7402/5-FU
  IC50: 80.3 ± 7.53 nM
[16]; Homo sapiens
  IC50: 43.9 ± 3.77 nM
[18]
  Anti-tumor rate (%): 87.74** %
  Body weight (g) Post-dose: 16.4 ± 1.7 g
  Tumor weight: 0.32 ± 0.03 g
  Body weight (g) Pre-dose: 20.3 ± 0.7 g
[19]
  Anti-tumor rate (%): 77.65** %
  Body weight (g) Post-dose: 16.1 ± 0.3 g
  Tumor weight: 0.57 ± 0.7 g
  Body weight (g) Pre-dose: 21.7 ± 1.2 g
[20]
  Anti-tumor rate (%): 77.71** %
  Body weight (g) Post-dose: 17.3 ± 1.2 g
  Tumor weight: 0.64 ± 0.21 g
  Body weight (g) Pre-dose: 22.8 ± 1.7 g
[21]
  Anti-tumor rate (%): 68.45** %
  Body weight (g) Post-dose: 16.5 ± 0.8 g
  Tumor weight: 0.53 ± 0.19 g
  Body weight (g) Pre-dose: 22.1 ± 1.9 g
[22]
  Anti-tumor rate (%): 69.23** %
  Body weight (g) Post-dose: 16.1 ± 0.4 g
  Tumor weight: 0.64 ± 0.17 g
  Body weight (g) Pre-dose: 20.1 ± 1.7 g
[25]
  IC50 at 72 h: 20.1 ± 0.97 nM
[26]
  IC50 at 72 h: 36.1 ± 1 nM

## CC[C@]1(O)C[C@H]2CN(CCc3c([nH]c4ccccc34)[C@@](C(=O)OC)(c3cc4c(cc3OC)N(C=O)[C@H]3[C@@](O)(C(=O)OC)[C@H](OC(C)=O)[C@]5(CC)C=CCN6CC[C@]43[C@@H]65)C2)C1 [Vincristine, reference compound]
[1]; Homo sapiens
  IC50: 1.32 ± 0.03 nM
[2]; Homo sapiens
  IC50: 0.74 ± 0.09 nM
[3]; Homo sapiens
  IC50: 1.51 ± 0.76 nM
[4]; Homo sapiens
  IC50: 0.97 ± 0.12 nM
[5]; Homo sapiens
  IC50: 2.33 ± 0.77 nM
[6]; Homo sapiens, MCF7
  IC50: 2.74 ± 0.36 nM
[7]; Homo sapiens
  IC50: 1.03 ± 0.22 nM
[8]; Homo sapiens
  IC50: 0.87 ± 0.26 nM
[9]; Homo sapiens
  IC50: 2.93 ± 0.37 nM
[10]; Homo sapiens
  IC50: 1.17 ± 0.31 nM
[11]; Homo sapiens
  IC50: 1.07 ± 0.33 nM
[12]; Homo sapiens, A-375
  IC50: 0.95 ± 0.16 nM
[13]; [28]
  IC50: 1.34 ± 0.21 nM
[14]; Homo sapiens
  IC50: 1.81 ± 0.17 nM
[15]; Homo sapiens, Bel7402/5-FU
  IC50: 22.7 ± 3.37 nM
[16]; Homo sapiens
  IC50: 7.78 ± 2.01 nM
[27]
  IC50: 9.67 ± 2.2 nM
[25]
  IC50 at 72 h: 0.21 ± 0.05 nM
[26]
  IC50 at 72 h: 0.42 ± 0.09 nM
